Results on 19 compounds are retold here after paper PMC5289826 (PLoS ONE, 2017).

In data set [1] the target is T1, recombinant human 11β-HSD1 (Homo sapiens, UniProt P28845).
T1 construct: expressed in transfected cells
Kind of data set: 11β-HSD1 enzyme activity in cell lysates (cortisone to cortisol, radiolabeled tracer, TLC). The following applies: for 11β-HSD1 Residual activity, % of control at 100 nM: 100 nM compound; for 11β-HSD1 Residual activity, % of control at 100 nM / 11β-HSD1 Residual activity, % of control at 1 μM: lysates of HEK-293 cells, 200 nM cortisone, mean of three experiments; for 11β-HSD1 Residual activity, % of control at 1 μM: 1 μM compound; for activity towards 11β-HSD1, effect of substituent (in words): SAR comparison within the series. In kind it is biochemical. Here is the method:
(§1) Human embryonic kidney (HEK-293) cells either stably expressing human 11β-HSD1 and H6PDH (HHH7 clone, [38]) or 11β-HSD2 (AT8 clone, [39]), or transiently expressing human 17β-HSD1 or 17β-HSD2, were cultivated in Dulbecco’s modified Eagle medium (DMEM) containing 4.5 g/L glucose, 10% fetal bovine serum, 100 U/mL penicillin, 0.1 mg/mL streptomycin, 1 × MEM nonessential amino acids, and 10 mM HEPES buffer, pH 7.4. Cells were washed with phosphate-buffered saline (PBS), centrifuged for 4 min at 150 × g, and the cell pellets were snap frozen on dry ice and stored at −80°C until further use.
(§2) Cell lysates were resuspended in TS2 buffer (100 mM NaCl, 1 mM EGTA, 1 mM EDTA, 1 mM MgCl2, 250 mM sucrose, 20 mM Tris-HCl, pH 7.4), followed by sonication at 4°C using a Hielscher UP50H ultrasonic processor (0.3 cycle, 20 amplitude %, 20 impulses; Hielscher Ultrasonics GmbH, Teltow Germany). Cell lysates, reaction mixture, and either vehicle (DMSO) or inhibitor were incubated for 10 min at 37°C in a final volume of 22.2 μL. The solvent concentration was 0.1%. […] 11β-HSD2 activity was measured in the presence of 50 nM cortisol and 500 μM NAD^+. An amount of 50 nCi of radiolabeled tracer substrate was included in the experiments. […] The bands of the corresponding steroids were excised, followed by scintillation counting and calculation of the amount of substrate conversion. Data were obtained from at least three independent measurements. Glycyrrhetinic acid (CTRL 1) was used as positive control for 11β-HSD1 and 11β-HSD2 inhibition, apigenin (CTRL 2) for 17β-HSD1, and compound 22 from Vuorinen et al. [40](CTRL 3) for 17β-HSD2 inhibition.

The test system of data set [2] is T2, recombinant human 11β-HSD2.
T2 construct: expressed in transfected cells
Kind of data set: 11β-HSD2 enzyme activity in cell lysates (cortisol to cortisone). It counts as biochemical. The following applies: 1 μM compound; lysates of HEK-293 cells; 50 nM cortisol. Here is the method: as §1, §2

The test system of another data set is human skin biopsies. Kind of data set: Dermal total collagen content in ex vivo human skin biopsies (Picrosirius Red). The following applies: 10 nM, 100 nM and 1 μM cortisone; p<0.01. Here is the method: Ex vivo skin experiments were performed as contract research by Cutech Biotechnology following the Helsinki declaration and who obtained permission as well as informed consent from the patient (Padova, Italy). Human skin from abdominal plastic surgery of a donor was used. Skin samples were cut in pieces of approximately 8 × 3 mm (diameter × thickness) and cultured in an air-liquid interface in a perforated ring of stainless steel in contact with culture medium (modified Williams’ E medium, Sigma Aldrich) up to day 6. The culture medium was renewed on day 0 and day 3. The test compounds were applied topically and renewed daily. The application was performed as follows: skin biopsies were gently cleaned with a cotton pad and 4 μL of 10 μM or 100 μM test compound were applied on top of each piece and covered with a 6 mm (diameter) delivery membrane (CoTran 9728 Controlled Caliper Ethylene Vinyl Acetate Membrane, 3M, St. Paul, MN, USA).
Skin viability was assessed in two skin biopsies after 6 days of treatment using methylthiazolyldiphenyl‐tetrazolium bromide (MTT, Sigma Aldrich) staining. Total dermal collagen in skin sections was semi-quantitatively evaluated by Picrosirius Red histochemical staining (using Picric Acid, Fast Green FCF and Direct Red from Sigma Aldrich) that dyes collagen fibers in purple-red. […] The evaluation was performed by estimating both color intensity and distribution using IMAGE J (NIH) analysis software, allowing to obtain a semi-quantitative evaluation of dermal collagen (collagen score). Two slides of each skin sample were processed by image acquisition and related analysis (i.e. 12 images for each treatment).

T1 sequence (P28845 whole entry): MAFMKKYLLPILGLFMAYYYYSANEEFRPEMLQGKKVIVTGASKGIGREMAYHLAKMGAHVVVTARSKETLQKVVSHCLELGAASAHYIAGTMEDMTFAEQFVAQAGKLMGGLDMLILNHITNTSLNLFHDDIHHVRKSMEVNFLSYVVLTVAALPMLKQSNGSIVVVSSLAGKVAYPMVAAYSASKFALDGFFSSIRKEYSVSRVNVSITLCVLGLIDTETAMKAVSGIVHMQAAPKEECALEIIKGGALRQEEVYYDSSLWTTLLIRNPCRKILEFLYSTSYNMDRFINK

In general, IC50 refers to the midpoint of a concentration-inhibition curve. Regarding `Cc1ccc(-c2cccc(C(=O)N3CCC(C)CC3)c2)cc1` [1b, (4’-Methyl-[1,1’-biphenyl]-3-yl)(4-methylpiperidin-1-yl)methanone], in data set [1], the concentration for half-maximal inhibition (IC50) turned out to be 0.0477 µM; the “11β-HSD1 Residual activity, % of control at 100 nM” value is 52 % of control; the “11β-HSD1 Residual activity, % of control at 1 μM” value was 1 % of control. Also, the “11β-HSD2 Residual activity, % of control at 1 μM” value (“11β-HSD2 Residual activity, %” below) in data set [2] is listed as > 90 % of control.
The melting point is the temperature, or range, at which the solid turns liquid. On to `O=C(c1cccc(-c2ccc(Cl)cc2)c1)N1CCCCCC1` [5e, Azepan-1-yl(4’-chloro-[1,1’-biphenyl]-3-yl)methanone], for which the melting point lay within 116 to 117 °C. In data set [1], the “11β-HSD1 Residual activity, % of control at 100 nM” value is 50 % of control and the “11β-HSD1 Residual activity, % of control at 1 μM” value is listed as 2 % of control. Also, the “11β-HSD2 Residual activity, %” value in data set [2] is > 90 % of control.
With `CC1CCN(C(=O)c2cccc(-c3ccccc3Cl)c2)CC1` [6b, (2’-Chloro-[1,1’-biphenyl]-3-yl)(4-methylpiperidin-1-yl)methanone], in data set [1], the IC50 is 0.0622 µM; the “11β-HSD1 Residual activity, % of control at 100 nM” value is 49 % of control; the “11β-HSD1 Residual activity, % of control at 1 μM” value was 4 % of control. Also, the “11β-HSD2 Residual activity, %” value in data set [2] is > 90 % of control.
With `CC1CCN(C(=O)c2cccc(-c3cccc(O)c3)c2)CC1` [8b, (3’-Hydroxy-[1,1’-biphenyl]-3-yl)(4-methylpiperidin-1-yl)methanone], in data set [1], the “11β-HSD1 Residual activity, % of control at 100 nM” value is listed as 70 % of control and the “11β-HSD1 Residual activity, % of control at 1 μM” value is given as 8 % of control. The “activity towards 11β-HSD1, effect of substituent (in words)” value (shortened to “activity towards 11β-HSD1, effect”) in data set [1] (cell lysates) is listed as “lower activity”. Also, in data set [2], the “11β-HSD2 Residual activity, %” value is on record as > 90 % of control.
Regarding `C[C@]12CCC(=O)C=C1CC[C@@H]1[C@@H]2C(=O)C[C@@]2(C)[C@H]1CC[C@]2(O)C(=O)CO` [cortisone, reference compound], the “decrease in dermal collagen” value with human skin biopsies was 20–26%.
Consider `CC1CCN(C(=O)c2cccc(-c3cccc(C(N)=O)c3)c2)CC1` [10b, 3’-(4-methylpiperidine-1-carbonyl)-[1,1’-biphenyl]-3-carboxamide], for which, in data set [1], the “11β-HSD1 Residual activity, % of control at 100 nM” value is 89 % of control and the “11β-HSD1 Residual activity, % of control at 1 μM” value is 34 % of control. In addition, the “activity towards 11β-HSD1, effect” value in data set [1] (cell lysates) was “substantial loss of activity”. Besides, in data set [2], the “11β-HSD2 Residual activity, %” value is on record as > 90 % of control.
`Cc1ccc(-c2cccc(C(=O)N3CCCCCC3)c2)cc1` [1e, Azepan-1-yl(4’-methyl-[1,1’-biphenyl]-3-yl)methanone]: the melting point fell in the range of 109 to 111 °C. In data set [1], the IC50 is 0.0374 µM and the “11β-HSD1 Residual activity, % of control at 100 nM” value is 17 % of control. Also, the “11β-HSD2 Residual activity, %” value in data set [2] is > 90 % of control.
Turning to `Cc1ccc(-c2cccc(C(=O)N3CCOC(C)(C)C3)c2)cc1F` [3c, (2,2-Dimethylmorpholino)(3’-fluoro-4’-methyl-[1,1’-biphenyl]-3-yl)methanone], in data set [1], the IC50 was found to be 0.0279 µM; the “11β-HSD1 Residual activity, % of control at 100 nM” value was 14 % of control; the “11β-HSD1 Residual activity, % of control at 1 μM” value is reported as 1 % of control.
In the case of `NC(=O)[C@@H]1CCCN1C(=O)c1cccc(-c2ccccc2Cl)c1` [6f, (S)-1-(2’-Chloro-[1,1’-biphenyl]-3-carbonyl)-pyrrolidine-2-carboxamide], in data set [1], the “11β-HSD1 Residual activity, % of control at 100 nM” value is > 90 % of control and the “11β-HSD1 Residual activity, % of control at 1 μM” value is on record as > 90 % of control. Further, the “activity towards 11β-HSD1 (in words)” value in data set [1] (at 1 μM, cell lysates) was “inactive”. Further, in data set [2], the “11β-HSD2 Residual activity, %” value is given as > 90 % of control.
With `Cc1ccc(-c2cccc(C(=O)N3CC(C)OC(C)C3)c2)cc1F` (centres unmarked) [3d, (2,6-Dimethylmorpholino)(3’-fluoro-4’-methyl-[1,1’-biphenyl]-3-yl)methanone], in data set [1], the “11β-HSD1 Residual activity, % of control at 100 nM” value is 44 % of control and the “11β-HSD1 Residual activity, % of control at 1 μM” value is on record as 4 % of control. Besides, in data set [2], the “11β-HSD2 Residual activity, %” value is on record as > 90 % of control.
`CC1CCN(C(=O)c2cccc(-c3ccc(Cl)cc3)c2)CC1` [5b, (4’-Chloro-[1,1’-biphenyl]-3-yl)(4-methylpiperidin-1-yl)methanone]: in data set [1], the “11β-HSD1 Residual activity, % of control at 100 nM” value is on record as 58 % of control and the “11β-HSD1 Residual activity, % of control at 1 μM” value is 3 % of control. Besides, in data set [2], the “11β-HSD2 Residual activity, %” value is recorded as > 90 % of control.
As for `Cc1ccc(-c2cccc(C(=O)N3CCC[C@H]3C(N)=O)c2)cc1F` [3f, (S)-1-(3’-fluoro-4’-methyl-[1,1’-biphenyl]-3-carbonyl)-pyrrolidine-2-carboxamide], the melting point is 73 to 75 °C. Also, in data set [1], the “11β-HSD1 Residual activity, % of control at 100 nM” value was > 90 % of control and the “11β-HSD1 Residual activity, % of control at 1 μM” value was > 90 % of control. In data set [1] (cell lysates), the “activity towards 11β-HSD1, effect” value is reported as “abolished the activity”. Besides, the “11β-HSD2 Residual activity, %” value in data set [2] was > 90 % of control.
`O=C(c1cccc(-c2ccc(O)cc2)c1)N1CCCCCC1` [7e, Azepan-1-yl(4’-hydroxy-[1,1’-biphenyl]-3-yl)methanone]: the melting point fell in the range of 184 to 185 °C. Besides, in data set [1], the “11β-HSD1 Residual activity, % of control at 100 nM” value is recorded as 28 % of control. For the same compound, the “11β-HSD2 Residual activity, %” value in data set [2] was > 90 % of control.
For `Cc1ccc(-c2cccc(C(=O)N3CCCCCC3)c2)cn1` [2e, Azepan-1-yl-(3-(6-methylpyridin-3-yl)phenyl)methanone], in data set [1], the IC50 stood at 0.046 µM and the “11β-HSD1 Residual activity, % of control at 100 nM” value was 30 % of control. The “11β-HSD2 Residual activity, %” value in data set [2] was > 90 % of control.
Take `Cc1ccc(-c2cccc(C(=O)N3CCCC(C)(C)C3)c2)cc1F` [3a, (3,3-Dimethylpiperidin-1-yl)(3’-fluoro-4’-methyl-[1,1’-biphenyl]-3-yl)methanone]: in data set [1], the 50% inhibitory concentration (IC50) is 0.0472 µM; the “11β-HSD1 Residual activity, % of control at 100 nM” value is 60 % of control; the “11β-HSD1 Residual activity, % of control at 1 μM” value is 3 % of control. Further, in data set [2], the “11β-HSD2 Residual activity, %” value is recorded as > 90 % of control.
With `CC1CCN(C(=O)c2cccc(-c3ccc(C(N)=O)cc3)c2)CC1` [9b, 3’-(4-methylpiperidine-1-carbonyl)-[1,1’-biphenyl]-4-carboxamide], the melting point lay within 188 to 190 °C. For the same compound, in data set [1], the “11β-HSD1 Residual activity, % of control at 100 nM” value is 65 % of control and the “11β-HSD1 Residual activity, % of control at 1 μM” value is listed as 19 % of control. Besides, in data set [1] (cell lysates), the “activity towards 11β-HSD1, effect” value is “substantial loss of activity”. In addition, the “11β-HSD2 Residual activity, %” value in data set [2] was > 90 % of control.
Turning to `Cc1ccc(-c2cccc(C(=O)N3CCCCCC3)c2)cc1C` [11e, Azepan-1-yl(3’,4’-dimethyl-[1,1’-biphenyl]-3-yl)methanone], in data set [1], the “11β-HSD1 Residual activity, % of control at 100 nM” value is reported as 69 % of control. The “activity towards 11β-HSD1, effect” value in data set [1] (cell lysates) is on record as “lower activity”. In addition, in data set [2], the “11β-HSD2 Residual activity, %” value is > 90 % of control.
On to `CC1CCN(C(=O)c2cccc(-c3ccc(F)cc3)c2)CC1` [4b, (4’-Fluoro-[1,1’-biphenyl]-3-yl)(4-methylpiperidin-1-yl)methanone], for which, in data set [1], the “11β-HSD1 Residual activity, % of control at 100 nM” value is 43 % of control and the “11β-HSD1 Residual activity, % of control at 1 μM” value is 4 % of control. Moreover, the “11β-HSD2 Residual activity, %” value in data set [2] is > 90 % of control.
Turning to `Cc1ccc(-c2cccc(C(=O)N3CCC(C)CC3)c2)cc1F` [3b], in data set [1], the IC50 is 0.0538 µM; the “11β-HSD1 Residual activity, % of control at 100 nM” value was 44 % of control; the “11β-HSD1 Residual activity, % of control at 1 μM” value is 1 % of control. Further, in data set [2], the “11β-HSD2 Residual activity, %” value was > 90 % of control.
